Consider 29 compounds from PubChem BioAssay (NCI).

Several values for one entry are separate records, joined by “and”; a condition that tells them apart may be missing. Equal entries are not always repeated.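 Each compound was tested at five concentrations against cells in 96-well plates for 48 hours. At the GI50, growth is halved. TGI denotes the concentration required for complete inhibition of growth.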

Common to all, as to assay: NCI tumour cell line growth inhibition, 48 h
The subject of experiment [1] is U251 CNS.
The test system of experiment [2] is OVCAR-5 ovarian.
In experiment [3] the test system is SW-620 colon.
For experiment [4], the system named is SR leukemia.
In experiment [5] the test system is TK-10 renal.
Experiment [6] concerns OVCAR-8 ovarian.
For experiment [7], the system named is K-562 leukemia.
Experiment [8] relates to SF-268 CNS.
Experiment [9] concerns RPMI-8226 leukemia.
Experiment [10] relates to HCC-2998 colon.

With `COC(=O)c1cc(=O)[nH]c(=O)[nH]1`, the TGI in experiment [1], in experiment [2], in experiment [3], in [4], in [5] and in experiment [6] was more than 100 µM each time. For the same compound, the TGI in experiment [7] and in [8] was more than 100 µM in each case.

For `CC(C)=NN/C(=N\S(=O)(=O)c1ccc(Oc2cccc(Cl)c2C#N)cc1)Nc1ccc(Cl)cc1`, the TGI in experiment [1], in experiment [2], in experiment [3], in experiment [5], in [6] and in experiment [7] was more than 100 µM each time. Further, the TGI in experiment [9] and in experiment [8] was more than 100 µM in each case.

Consider `CC(C)CNc1nc2ncnc(N)c2[nH]1`, for which the TGI in [1], in experiment [2], in experiment [3], in experiment [5], in experiment [6] and in experiment [10] was more than 100 µM in each case. In addition, the TGI in [7], in experiment [9] and in experiment [8] was more than 100 µM throughout.

In the case of `OCC(O)C(O)C(O)C(O)c1nc2ccc(Cl)cc2[nH]1` (stereo not given), the TGI in experiment [1], in experiment [2], in experiment [3], in [5], in [6] and in [10] was more than 100 µM in each case. Also, the TGI in experiment [7], in [9] and in experiment [8] was more than 100 µM in each case.

`CCCCCCCC/C=C\CCCCCCC/C=C1\C[C@](/C=C/C(=O)OC)(CO)OC1=O`: the TGI in experiment [1] is 5.92 µM; in experiment [2] it was 19.5 µM; in experiment [3] it was 3.78 µM; in experiment [4], more than 23.5 µM; in experiment [5], 8 µM; in experiment [6], 8.5 µM. For the same compound, the TGI was 13.8 µM in experiment [10], 15.3 µM in [7] and 4.4 µM in experiment [8].

For `[Cl][Sn]([c]1ccccc1)([c]1ccccc1)[c]1ccccc1`, the TGI in experiment [2] is 0.456 µM and 0.266 µM and 0.0901 µM; in experiment [3] it was 0.104 µM and 0.0229 µM; in [4], 0.86 µM and 0.552 µM and 0.112 µM; in [5] it was 0.604 µM and 0.283 µM; in experiment [7] it was 0.892 µM. Also, the GI50 in experiment [3] is 0.0303 µM and < 0.01 µM; in experiment [5], 0.24 µM and 0.148 µM; in [7], 0.302 µM.

For `CCOC(=O)c1nc2ccc(C(F)(F)F)cc2nc1Oc1cc(OC)c(OC)c(OC)c1`, the TGI in experiment [1], in [2], in experiment [3], in [5], in [6] and in experiment [7] was more than 100 µM throughout. Further, the TGI in experiment [9] and in experiment [8] was more than 100 µM each time.

`C[n+]1cccc2c(=O)c3ccccc3oc21`: the TGI in [1], in experiment [2], in [3], in experiment [4], in experiment [5] and in experiment [6] was more than 100 µM in each case. Further, the TGI in [10], in experiment [7] and in experiment [8] was more than 100 µM in each case.

In the case of `Cc1cc(C)nc(SC2=C(Nc3ccc(C)c(Cl)c3)C(=O)N(Cc3ccccc3)C2=O)n1`, the GI50 in experiment [1], in experiment [2], in experiment [3], in [5], in experiment [6] and in [10] was more than 160 µM each time. For the same compound, in [8], the GI50 was more than 160 µM. The TGI in experiment [1], in experiment [2], in [3], in experiment [5], in [6] and in [10] was more than 160 µM throughout. This compound had a TGI in [8] of more than 160 µM.

In the case of `OC1(c2ccccc2)CCN(Cc2c[nH]c3ccccc23)CC1`, the TGI was more than 100 µM in experiment [1]; more than 100 µM in [2]; more than 100 µM in [3]; more than 100 µM in experiment [5]; more than 100 µM in experiment [6]; 31.6 µM in experiment [10]. Moreover, the TGI in experiment [7], in [9] and in experiment [8] was more than 100 µM each time.

Regarding `C/C=C/c1cc(=O)c([C@@H]2OC(=O)c3cc(OC)cc(OC)c32)co1`, the TGI in experiment [3] is more than 100 µM; in [4] it was more than 100 µM; in [5] it was more than 100 µM; in [6], more than 100 µM; in experiment [10], 90 µM; in experiment [7], more than 100 µM. Also, the TGI in experiment [9] and in [8] was more than 100 µM throughout.

For `CCOP(=O)(/C=C\n1cc(C)c(=O)[nH]c1=O)OCC`, the TGI in experiment [1], in [2], in experiment [3], in experiment [5], in experiment [6] and in [7] was more than 100 µM throughout. Moreover, the TGI in experiment [9] and in experiment [8] was more than 100 µM each time.

Take `COC(=O)C1CCC(=S)N1C(=O)c1ccccc1` (stereo not given): the TGI in [1], in experiment [2], in experiment [5], in [6], in experiment [10] and in experiment [7] was more than 100 µM in each case. Besides, the TGI in experiment [9] and in [8] was more than 100 µM throughout.

On to `CSCCC(N)C(=O)NCCNc1ccc(NCCNC(=O)C(N)CCSC)c2c1C(=O)c1ccccc1C2=O` (stereo not given), for which the TGI in experiment [1] was found to be 2.44 µM; in [2] it was 5.61 µM; in [3], 3.83 µM; in [4], 2.85 µM; in [5] it was 9.3 µM; in [6], 4.17 µM. Besides, the TGI is 2.33 µM in [10], more than 100 µM in experiment [7] and 4.55 µM in experiment [8].

In the case of `C=C/C(C)=C\CC1[C@](C)(O)CC[C@H]2C(C)(C)C(=O)CC[C@]12C` (stereo not given in full), the TGI in experiment [1] is more than 100 µM; in [2] it was more than 100 µM; in experiment [3], more than 100 µM; in experiment [4] it was 66.5 µM; in experiment [5], more than 100 µM; in experiment [6], more than 100 µM. Further, the TGI in experiment [7], in experiment [9] and in experiment [8] was more than 100 µM throughout.

For the compound `COc1cc2ccc(=O)oc2cc1O`, the TGI was 455 µM in experiment [1]; 514 µM in experiment [2]; more than 625 µM in [3]; 424 µM in experiment [6]; 305 µM in experiment [10]; 562 µM in experiment [7]. Besides, the figures for the TGI in [9] and in [8] were 438 µM and more than 585 µM, respectively. In addition, the GI50 in [10] was 56.4 µM.

As for `CC(=C(c1ccccc1)c1ccccc1)N1C(=O)CC(=O)N1C`, the TGI in [1], in experiment [2], in experiment [3], in experiment [5], in experiment [6] and in [10] was more than 100 µM throughout. Further, the TGI in experiment [7], in [9] and in experiment [8] was more than 100 µM throughout.

As to `COc1ccc(N2C(=O)CC(=O)N(C(=O)COc3ccc(OCC(=O)N4C(=O)CC(=O)N(c5ccc(OC)cc5)C4=S)cc3)C2=S)cc1`, the TGI in [1], in experiment [2], in experiment [3], in experiment [5], in experiment [10] and in experiment [7] was more than 100 µM each time. Further, the TGI in experiment [9] and in experiment [8] was more than 100 µM throughout.

For `COc1ccc(CC(N)c2ccc(OC)cc2)cc1` (stereo not given), the TGI in experiment [1] was more than 100 µM; in experiment [2] it was more than 100 µM; in [3], more than 100 µM; in [5] it was more than 100 µM; in experiment [6], more than 100 µM; in [10], 35 µM. The TGI in experiment [7] is more than 100 µM; in experiment [9] it was 83 µM; in [8], more than 100 µM.

`NC(=O)c1cccc([N+](=O)[O-])c1`: the TGI in experiment [1], in [3], in experiment [5], in experiment [6], in experiment [10] and in experiment [7] was more than 100 µM in each case. The TGI in experiment [9] and in [8] was more than 100 µM each time.

With `Cc1ccc(S(=O)(=O)n2c3ccc(Br)cc3c3nc4ccccc4nc32)cc1`, the TGI in experiment [1], in experiment [2], in experiment [3], in experiment [5], in experiment [6] and in experiment [10] was more than 100 µM in each case. Also, the TGI in [7], in experiment [9] and in [8] was more than 100 µM throughout.

Take `CC1CCCC2(CC[N+](C)(CCC[N+](C)(C)C)CC2)C1` (stereo not given): the TGI in [1], in experiment [2], in experiment [3], in experiment [4], in experiment [5] and in experiment [6] was more than 100 µM throughout. Besides, the TGI in [7], in [9] and in [8] was more than 100 µM throughout.

As to `CCNCCCn1c2c(c3ccc(Cl)cc3c1=O)C(=O)c1cc(OC)cnc1-2`, the GI50 in experiment [1] was 0.219 µM; in experiment [2], 1.48 µM; in experiment [3], 0.0316 µM; in [6], 0.694 µM; in [10], 1.28 µM; in [9] it was 1.25 µM. The GI50 in [8] was 0.33 µM. Besides, the TGI worked out at 1.73 µM in [1]; 3.31 µM in experiment [2]; 1.76 µM in experiment [3]; 3.22 µM in [6]; 2.99 µM in [10]; 3.65 µM in experiment [9]. Further, the TGI in experiment [8] is 2.04 µM.

Take `C[C@H](NC(=O)C(Cc1ccccc1)(Cc1ccc(O)cn1)NC(=O)c1ccccc1)c1ccccc1` (stereo not given in full): the TGI in experiment [1] worked out at 28.6 µM; in [2] it was 37.4 µM; in experiment [3], 59.3 µM; in experiment [5], 94.8 µM; in [6], 42.1 µM; in experiment [10], 30.8 µM. The TGI is more than 100 µM in experiment [7], more than 100 µM in [9] and 39.1 µM in [8].

Regarding `ClCCCc1ccccc1C1=NCCc2ccccc21`, the TGI in [1], in [2], in [3], in [5], in experiment [6] and in [10] was more than 100 µM in each case. In addition, the TGI in [7] was more than 100 µM; in [9] it was 23.3 µM; in experiment [8] it was more than 100 µM.

Take `CCOc1ccc(N/C(=C(/C(Cl)=C(/Cl)N(CC)CC)[N+](=O)[O-])n2nnc3ccccc32)cc1`: the TGI was 28.1 µM in [1]; more than 100 µM in experiment [2]; 27.3 µM in experiment [3]; 32.7 µM in [6]; more than 100 µM in [10]; more than 100 µM in experiment [7]. Moreover, the results for the TGI in experiment [9] and in experiment [8] were more than 100 µM and 36.2 µM, respectively.

Consider `O=C1NC(=O)C(C(CC(=O)c2ccc([N+](=O)[O-])cc2)c2ccccc2)C(=O)N1` (stereo not given), for which the TGI in [1] is more than 100 µM; in [2], more than 100 µM; in experiment [3], more than 100 µM; in experiment [4], more than 100 µM; in experiment [5] it was 7.73 µM; in experiment [6], more than 100 µM. In addition, the TGI in experiment [7], in [9] and in [8] was more than 100 µM in each case.

Turning to `CO/N=C1\CC(NC(=O)CNC(=O)OC(C)(C)C)c2ccsc21` (stereo not given), the TGI in experiment [1], in experiment [2], in [3], in experiment [4], in experiment [5] and in experiment [6] was more than 100 µM throughout. Also, the TGI in experiment [10] and in experiment [8] was more than 100 µM throughout.

Turning to `C=C[C@@H](C)[C@H](NS(=O)(=O)c1ccc(C)cc1)C(=O)OCC`, the TGI in experiment [1] was 97.3 µM; in experiment [2], more than 100 µM; in experiment [3], more than 100 µM; in experiment [4] it was more than 100 µM; in experiment [5], more than 100 µM; in experiment [6] it was more than 100 µM. Moreover, the results for the TGI in experiment [7], in experiment [9] and in experiment [8] were more than 100 µM, 35.5 µM and more than 100 µM, respectively.
